Measured values as given in publication PMC8036666, “Biological and Physico-Chemical Characteristics of Arginine-Rich Peptide Gemini Surfactants with Lysine and Cystine Spacers” (International Journal of Molecular Sciences, 2021).
Converted amounts (≈) assume the structure as drawn. Where two headings read alike, the source gives them in different places. Where a SMILES comes first, the peptide text is derived from it. Side-chain parts run from the residue outwards. The star is where a group is joined. Myristoyl = CCCCCCCCCCCCCC(=O)*; Lauroyl = CCCCCCCCCCCC(=O)*; Decanoyl = CCCCCCCCCC(=O)*; Octanoyl = CCCCCCCC(=O)*

Legend:
[1] = tested on: C. albicans ATCC 10231
Method: (§1) The Acinetobacter baumannii ATCC BAA-1605, Enterococcus faecium ATCC 700221, Escherichia coli ML-35 ATCC 43827, Klebsiella aerogenes ATCC 13048, Klebsiella pneumoniae ATCC 700603, Pseudomonas aeruginosa ATCC 9027, Staphylococcus aureus ATCC 25923, Staphylococcus aureus ATCC 33591, Candida albicans ATCC 10231, Candida glabrata ATCC 15126, strains were acquired from the American Type Culture Collection (ATCC). All the strains were stored at −80 °C in Roti-Store cryo vials and before the tests were transferred into fresh Mueller–Hinton broth (MHB, Biocorp, Warsaw, Poland) for bacteria or RPMI-1640 (Sigma-Aldrich, Steinheim, Germany) for fungi and incubated for 24 h at 37 °C. Then, the cultures were seeded on the Mueller–Hinton agar (BioMaxima, Lublin, Poland) or Sabouraud dextrose agar (SDA, BioMaxima, Lublin, Poland) plates, respectively, and incubated as just mentioned. These agar cultures were used for further microbiological assays. Cell densities for all assays were adjusted spectrophotometrically (Multiskan GO Microplate Spectrophotometer, Thermo Fisher Scientific, Vantaa, Finland) at 600 and 530 nm for bacteria and fungi, respectively.
(§2) The MICs were determined by the broth microdilution method according to the Clinical and Laboratory Standard Institute guidelines. For this purpose, initial inoculums of bacteria (5 × 10^5 CFU/mL) in MHB and yeasts (2 × 10^3 CFU/mL) in RPMI-1640 with 2% D-glucose were exposed to the ranging concentration of lipopeptides (0.5–256 μg/mL) and incubated at 37 °C for 18 h and 24 h, respectively. The experiments were conducted on 96-well microtiter polystyrene plates (Kartell, Noviglio, Italy). The growth was assessed visually after incubation, and the MIC was assumed as the lowest peptide concentration at which a noticeable growth of microorganisms was inhibited. All experiments were conducted in triplicate.

[2] = tested on: C. glabrata ATCC 15126
Method: as §1, §2

[3] = tested on: Klebsiella aerogenes ATCC 13048; format: cell-based; conditions: ATCC 13048, 24 h
Method: (§3) Biofilm is associated with life-threating infections due to its outstanding resistance to antibiotics. In this study, the antibiofilm characteristics of USCLs and gemini surfactants were evaluated.
(§4) The MBECs were determined as described previously using 96-well polystyrene flat-bottom plates. For this purpose, 24 h cultures of microorganisms were diluted to obtain a final density of 5.0 × 10^5 CFU/mL and 2.0 × 10^5 CFU/mL of bacteria and fungi, respectively. Microorganisms were diluted in MHB or RPMI-1640 with 2% D-glucose (bacteria and fungi, respectively). Briefly, 100 µL of cell suspension was added into the test plates. After 24 h of incubation at 37 °C, the wells were rinsed three times with a PBS (pH 7.4) to remove non-adherent cells. Subsequently, 100 μL of the test compounds in a concentration range (1–512 μg/mL) were added to each well. After 24 h of incubation at 37 °C, 20 μL of a cell viability reagent was added (resazurin, 4 g/L; Sigma Aldrich, St. Louis, MO, USA). The MBEC was read after 1 h. The determined values were recorded as the lowest concentration at which the reduction of resazurin (from blue to pink) was lower or equal to 10 ± 0.5% as compared to the positive (100%) and negative (0%) controls. The reduction was monitored by measuring absorbance at 570 nm (reduced) and 600 nm (oxidized) using a microplate spectrophotometer (Multiskan GO Microplate Spectrophotometer, Thermo Fisher Scientific, Vantaa, Finland). All experiments were conducted in triplicate.

[4] = tested on: Staphylococcus aureus ATCC 25923; format: cell-based; conditions: ATCC 25923, 24 h
Method: as §3, §4

[5] = tested on: Staphylococcus aureus ATCC 33591; format: cell-based; conditions: ATCC 33591, 24 h
Method: as §3, §4

[6] = tested on: Candida glabrata ATCC 15126; format: cell-based; conditions: ATCC 15126, 24 h
Method: as §3, §4

[7] = tested on: Enterococcus faecium ATCC 700221; format: cell-based; conditions: ATCC 700221, 24 h
Method: as §3, §4

[8] = tested on: Candida albicans ATCC 10231; format: cell-based; conditions: ATCC 10231, 24 h
Method: as §3, §4

[9] = tested on: Klebsiella pneumoniae ATCC 700603; format: cell-based; conditions: ATCC 700603, 24 h
Method: as §3, §4

[10] = tested on: Pseudomonas aeruginosa ATCC 9027; format: cell-based; conditions: ATCC 9027, 24 h
Method: as §3, §4

[11] = tested on: Acinetobacter baumannii ATCC BAA 1605; format: cell-based; conditions: ATCC BAA 1605, 24 h
Method: as §3, §4

[12] = tested on: Staphylococcus aureus ATCC 33591
Method: as §1, with “[…],” for “Poland) for bacteria or RPMI-1640 (Sigma-Aldrich,”, “Cell densities for all assays were adjusted spectrophotometrically (Multiskan GO Microplate Spectrophotometer, Thermo Fisher Scientific, Vantaa, Finland) at 600 and 530 nm for bacteria and fungi, respectively.” left out
The MICs were determined by the broth microdilution method according to the Clinical and Laboratory Standard Institute guidelines. […] The experiments were conducted on 96-well microtiter polystyrene plates (Kartell, Noviglio, Italy). The growth was assessed visually after incubation, and the MIC was assumed as the lowest peptide concentration at which a noticeable growth of microorganisms was inhibited. All experiments were conducted in triplicate.

MIC C. albicans ATCC 10231 ([1]; planktonic culture) | MIC C. glabrata ATCC 15126 ([2]; planktonic culture) | MIC Staphylococcus aureus ATCC 33591 ([12]; planktonic culture) | MIC C. albicans ATCC 10231 ([1]; ATCC 10231, 24 h) [µg/mL] | MIC C. glabrata ATCC 15126 ([2]; ATCC 15126, 24 h) [µg/mL] | MIC Staphylococcus aureus ATCC 33591 ([12]; ATCC 33591, 24 h) [µg/mL] | Compound | MBEC Klebsiella aerogenes ATCC 13048 [3] [µg/mL] | MBEC Staphylococcus aureus ATCC 25923 [4] [µg/mL] | MBEC Staphylococcus aureus ATCC 33591 [5] [µg/mL] | MBEC Candida glabrata ATCC 15126 [6] [µg/mL] | MBEC Enterococcus faecium ATCC 700221 [7] [µg/mL] | MBEC Candida albicans ATCC 10231 [8] [µg/mL] | MBEC Klebsiella pneumoniae ATCC 700603 [9] [µg/mL] | MBEC Pseudomonas aeruginosa ATCC 9027 [10] [µg/mL] | MBEC Acinetobacter baumannii ATCC BAA 1605 [11] [µg/mL]
 |  |  | 64 (≈ 62.6 µM) | 64 (≈ 62.6 µM) | 8 (≈ 7.83 µM) | CCCCCCCC(=O)N[C@@H](CCCNC(=N)N)C(=O)N[C@@H](CCCNC(=N)N)C(=O)NCCCC[C@H](NC(=O)[C@H](CCCNC(=N)N)NC(=O)[C@H](CCCNC(=N)N)NC(=O)CCCCCCC)C(N)=O [Compound B1] (Octanoyl-Arg-Arg-Lys([Arg-Arg-Octanoyl])-NH2) | >512 | 32 | 32 | >512 | 128 | 256 | >512 | 512 | 512
 |  |  | 2 (≈ 1.76 µM) | 2 (≈ 1.76 µM) | 2 (≈ 1.76 µM) | CCCCCCCCCCCC(=O)N[C@@H](CCCNC(=N)N)C(=O)N[C@@H](CCCNC(=N)N)C(=O)NCCCC[C@H](NC(=O)[C@H](CCCNC(=N)N)NC(=O)[C@H](CCCNC(=N)N)NC(=O)CCCCCCCCCCC)C(N)=O [Compound B3] (Lauroyl-Arg-Arg-Lys([Arg-Arg-Lauroyl])-NH2) | 128 | 64 | 16 | 64 | 16 | 32 | 128 | 512 | 256

Second part, the compound before the results:

Compound | MIC C. albicans ATCC 10231 ([1]; planktonic culture) | MIC C. glabrata ATCC 15126 ([2]; planktonic culture) | MIC Staphylococcus aureus ATCC 33591 ([12]; planktonic culture) | MIC C. albicans ATCC 10231 ([1]; ATCC 10231, 24 h) [µg/mL] | MIC C. glabrata ATCC 15126 ([2]; ATCC 15126, 24 h) [µg/mL] | MIC Staphylococcus aureus ATCC 33591 ([12]; ATCC 33591, 24 h) [µg/mL] | MBEC Klebsiella aerogenes ATCC 13048 [3] [µg/mL] | MBEC Staphylococcus aureus ATCC 25923 [4] [µg/mL] | MBEC Staphylococcus aureus ATCC 33591 [5] [µg/mL] | MBEC Candida glabrata ATCC 15126 [6] [µg/mL] | MBEC Enterococcus faecium ATCC 700221 [7] [µg/mL] | MBEC Candida albicans ATCC 10231 [8] [µg/mL] | MBEC Klebsiella pneumoniae ATCC 700603 [9] [µg/mL] | MBEC Pseudomonas aeruginosa ATCC 9027 [10] [µg/mL] | MBEC Acinetobacter baumannii ATCC BAA 1605 [11] [µg/mL]
CCCCCCCC(=O)N[C@@H](CCCNC(=N)N)C(=O)N[C@@H](CCCNC(=N)N)C(N)=O [Compound A1, C8-RR-NH2] (Octanoyl-Arg-Arg-NH2) | >256 (−/−) µg/mL | >256 (−/−) µg/mL | >256 (−/−) µg/mL |  |  |  | >512 | >512 | >512 | >512 | >512 | >512 | >512 | >512 | >512
CCCCCCCCCC(=O)N[C@@H](CCCNC(=N)N)C(=O)N[C@@H](CCCNC(=N)N)C(N)=O [Compound A2, C10-RR-NH2] (Decanoyl-Arg-Arg-NH2) | >256 (−/−) µg/mL | >256 (−/−) µg/mL | 256 (−/−) µg/mL |  |  |  | >512 | 512 | 512 | >512 | 512 | 512 | >512 | >512 | >512
CCCCCCCCCCCC(=O)N[C@@H](CCCNC(=N)N)C(=O)N[C@@H](CCCNC(=N)N)C(N)=O [Compound A3, C12-RR-NH2] (Lauroyl-Arg-Arg-NH2) |  |  |  | 64 (≈ 125 µM) | 128 (≈ 250 µM) | 32 (≈ 62.5 µM) | 512 | 64 | 64 | 512 | 32 | 128 | 512 | 512 | 512
CCCCCCCCCCCCCC(=O)N[C@@H](CCCNC(=N)N)C(=O)N[C@@H](CCCNC(=N)N)C(N)=O [Compound A4, C14-RR-NH2] (Myristoyl-Arg-Arg-NH2) |  |  |  | 8 (≈ 14.8 µM) | 16 (≈ 29.6 µM) | 8 (≈ 14.8 µM) | 256 | 16 | 8 | 256 | 8 | 64 | 256 | 512 | 256
CCCCCCCCCC(=O)N[C@@H](CCCNC(=N)N)C(=O)N[C@@H](CCCNC(=N)N)C(=O)NCCCC[C@H](NC(=O)[C@H](CCCNC(=N)N)NC(=O)[C@H](CCCNC(=N)N)NC(=O)CCCCCCCCC)C(N)=O [Compound B2] (Decanoyl-Arg-Arg-Lys([Arg-Arg-Decanoyl])-NH2) |  |  |  | 8 (≈ 7.42 µM) | 4 (≈ 3.71 µM) | 1 (≈ 0.927 µM) | 256 | 8 | 4 | 512 | 4 | 32 | 256 | 512 | 128
